Source: the NIST ThermoML archive (doi:10.1021/je500380x)

Assay: mn = molality of the nth substance listed, in mol/kg
Settings: 100 kPa, Liquid; for electrical conductivity: Alternating current cell with electrodes; for viscosity: Falling or rolling sphere viscometry; for mass density: Vibrating tube method

CCC(=O)OCCN1CCNCC1 [2-(piperazin-1-yl)ethyl propionate] + O
Settings	electrical conductivity [S/m]	mass density [kg/m3]	viscosity [mPa·s]
293.15 K, m1 = 0.05	0.239	1000.1	1.031
293.15 K, m1 = 0.0999	0.436	1002.01	1.081
293.15 K, m1 = 0.1996	0.762	1005.79	1.172
293.15 K, m1 = 0.3	1.028	1009.71	1.247
293.15 K, m1 = 0.3997	1.25	1013.54	1.349
293.15 K, m1 = 0.5001	1.406	1017.42	1.464
293.15 K, m1 = 0.5992	1.56	1021.32	1.581
293.15 K, m1 = 0.6993	1.68	1025.14	1.726
293.15 K, m1 = 0.7997	1.77	1029.27	1.883
293.15 K, m1 = 0.9003	1.822	1033.09	2.075
293.15 K, m1 = 0.9988	1.85	1037.12	2.263
293.15 K, m1 = 1.199	1.86	1045.08	2.77
293.15 K, m1 = 1.402	1.8	1053.12	3.472
293.15 K, m1 = 1.6	1.68	1060.85	4.338
293.15 K, m1 = 1.802	1.523	1068.6	5.445
293.15 K, m1 = 1.998	1.35	1075.94	7.039
293.15 K, m1 = 2.2	1.16	1083.11	9.362
293.15 K, m1 = 2.402	0.955	1090.06	12.4
293.15 K, m1 = 2.6	0.779	1096.1	18.48
293.15 K, m1 = 2.798	0.595	1101.66	25.9
293.15 K, m1 = 3.002	0.461	1106.84	36.82
298.15 K, m1 = 0.05	0.267	998.94	0.92
298.15 K, m1 = 0.0999	0.486	1000.81	0.962
298.15 K, m1 = 0.1996	0.848	1004.54	1.039
298.15 K, m1 = 0.3	1.15	1008.41	1.103
298.15 K, m1 = 0.3997	1.4	1012.17	1.187
298.15 K, m1 = 0.5001	1.6	1015.99	1.289
298.15 K, m1 = 0.5992	1.76	1019.83	1.389
298.15 K, m1 = 0.6993	1.89	1023.57	1.51
298.15 K, m1 = 0.7997	2	1027.65	1.644
298.15 K, m1 = 0.9003	2.07	1031.4	1.805
298.15 K, m1 = 0.9988	2.12	1035.35	1.964
298.15 K, m1 = 1.199	2.13	1043.15	2.388
298.15 K, m1 = 1.402	2.06	1051.04	2.91
298.15 K, m1 = 1.6	1.94	1058.61	3.684
298.15 K, m1 = 1.802	1.76	1066.22	4.58
298.15 K, m1 = 1.998	1.57	1073.41	5.865
298.15 K, m1 = 2.2	1.36	1080.44	7.721
298.15 K, m1 = 2.402	1.16	1087.27	10.14
298.15 K, m1 = 2.6	0.931	1093.23	14.88
298.15 K, m1 = 2.798	0.738	1098.69	20.54
298.15 K, m1 = 3.002	0.578	1103.78	28.69
303.15 K, m1 = 0.05	0.296	997.53	0.828
303.15 K, m1 = 0.0999	0.538	999.38	0.864
303.15 K, m1 = 0.1996	0.941	1003.06	0.93
303.15 K, m1 = 0.3	1.28	1006.88	0.985
303.15 K, m1 = 0.3997	1.56	1010.59	1.058
303.15 K, m1 = 0.5001	1.78	1014.36	1.145
303.15 K, m1 = 0.5992	1.97	1018.15	1.232
303.15 K, m1 = 0.6993	2.11	1021.82	1.335
303.15 K, m1 = 0.7997	2.23	1025.85	1.45
303.15 K, m1 = 0.9003	2.31	1029.53	1.587
303.15 K, m1 = 0.9988	2.37	1033.42	1.722
303.15 K, m1 = 1.199	2.4	1041.09	2.079
303.15 K, m1 = 1.402	2.35	1048.83	2.519
303.15 K, m1 = 1.6	2.22	1056.27	3.163
303.15 K, m1 = 1.802	2.04	1063.74	3.903
303.15 K, m1 = 1.998	1.828	1070.79	4.953
303.15 K, m1 = 2.2	1.59	1077.7	6.458
303.15 K, m1 = 2.402	1.37	1084.44	8.415
303.15 K, m1 = 2.6	1.109	1090.28	12.17
303.15 K, m1 = 2.798	0.878	1095.67	16.6
303.15 K, m1 = 3.002	0.722	1100.68	22.77
308.15 K, m1 = 0.05	0.327	995.91	0.75
308.15 K, m1 = 0.0999	0.595	997.73	0.783
308.15 K, m1 = 0.1996	1.042	1001.37	0.839
308.15 K, m1 = 0.3	1.416	1005.16	0.887
308.15 K, m1 = 0.3997	1.729	1008.83	0.951
308.15 K, m1 = 0.5001	1.97	1012.54	1.027
308.15 K, m1 = 0.5992	2.19	1016.24	1.102
308.15 K, m1 = 0.6993	2.36	1019.8	1.19
308.15 K, m1 = 0.7997	2.49	1023.89	1.292
308.15 K, m1 = 0.9003	2.59	1027.51	1.407
308.15 K, m1 = 0.9988	2.66	1031.34	1.524
308.15 K, m1 = 1.199	2.7	1038.89	1.83
308.15 K, m1 = 1.402	2.65	1046.51	2.203
308.15 K, m1 = 1.6	2.53	1053.82	2.745
308.15 K, m1 = 1.802	2.33	1061.17	3.361
308.15 K, m1 = 1.998	2.11	1068.11	4.23
308.15 K, m1 = 2.2	1.85	1074.9	5.468
308.15 K, m1 = 2.402	1.6	1081.54	7.079
308.15 K, m1 = 2.6	1.305	1087.28	10.12
308.15 K, m1 = 2.798	1.06	1092.61	13.61
308.15 K, m1 = 3.002	0.848	1097.53	18.37
313.15 K, m1 = 0.05	0.359	994.07	0.687
313.15 K, m1 = 0.0999	0.651	995.89	0.714
313.15 K, m1 = 0.1996	1.143	999.5	0.763
313.15 K, m1 = 0.3	1.56	1003.25	0.806
313.15 K, m1 = 0.3997	1.903	1006.85	0.861
313.15 K, m1 = 0.5001	2.18	1010.55	0.928
313.15 K, m1 = 0.5992	2.43	1014.22	0.994
313.15 K, m1 = 0.6993	2.62	1017.89	1.069
313.15 K, m1 = 0.7997	2.77	1021.76	1.159
313.15 K, m1 = 0.9003	2.88	1025.33	1.258
313.15 K, m1 = 0.9988	2.96	1029.11	1.361
313.15 K, m1 = 1.199	3.02	1036.57	1.623
313.15 K, m1 = 1.402	2.99	1044.07	1.944
313.15 K, m1 = 1.6	2.84	1051.27	2.407
313.15 K, m1 = 1.802	2.65	1058.51	2.925
313.15 K, m1 = 1.998	2.4	1065.33	3.651
313.15 K, m1 = 2.2	2.13	1072.02	4.68
313.15 K, m1 = 2.402	1.843	1078.58	6.032
313.15 K, m1 = 2.6	1.53	1084.23	8.455
313.15 K, m1 = 2.798	1.215	1089.49	11.32
313.15 K, m1 = 3.002	0.987	1094.34	15.06
318.15 K, m1 = 0.05	0.392	992.04	0.632
318.15 K, m1 = 0.0999	0.711	993.83	0.658
318.15 K, m1 = 0.1996	1.25	997.43	0.7
318.15 K, m1 = 0.3	1.707	1001.16	0.737
318.15 K, m1 = 0.3997	2.08	1004.61	0.785
318.15 K, m1 = 0.5001	2.39	1008.39	0.844
318.15 K, m1 = 0.5992	2.66	1012.05	0.902
318.15 K, m1 = 0.6993	2.86	1015.67	0.969
318.15 K, m1 = 0.7997	3.04	1019.49	1.048
318.15 K, m1 = 0.9003	3.17	1023	1.133
318.15 K, m1 = 0.9988	3.26	1026.75	1.222
318.15 K, m1 = 1.199	3.34	1034.11	1.452
318.15 K, m1 = 1.402	3.31	1041.51	1.729
318.15 K, m1 = 1.6	3.19	1048.62	2.122
318.15 K, m1 = 1.802	2.96	1055.75	2.566
318.15 K, m1 = 1.998	2.7	1062.48	3.183
318.15 K, m1 = 2.2	2.4	1069.07	4.044
318.15 K, m1 = 2.402	2.11	1075.55	5.196
318.15 K, m1 = 2.6	1.77	1081.13	7.174
318.15 K, m1 = 2.798	1.411	1086.33	9.493
318.15 K, m1 = 3.002	1.17	1091.09	12.49
323.15 K, m1 = 0.05	0.426	989.83	0.587
323.15 K, m1 = 0.0999	0.772	991.62	0.61
323.15 K, m1 = 0.1996	1.36	995.19	0.645
323.15 K, m1 = 0.3	1.85	998.9	0.678
323.15 K, m1 = 0.3997	2.27	1002.44	0.722
323.15 K, m1 = 0.5001	2.61	1006.07	0.773
323.15 K, m1 = 0.5992	2.92	1009.7	0.825
323.15 K, m1 = 0.6993	3.14	1013.4	0.883
323.15 K, m1 = 0.7997	3.34	1017.08	0.953
323.15 K, m1 = 0.9003	3.48	1020.5	1.028
323.15 K, m1 = 0.9988	3.59	1024.22	1.106
323.15 K, m1 = 1.199	3.69	1031.52	1.307
323.15 K, m1 = 1.402	3.64	1038.79	1.549
323.15 K, m1 = 1.6	3.52	1045.84	1.895
323.15 K, m1 = 1.802	3.28	1052.89	2.274
323.15 K, m1 = 1.998	3	1059.54	2.797
323.15 K, m1 = 2.2	2.69	1066.05	3.527
323.15 K, m1 = 2.402	2.38	1072.45	4.525
323.15 K, m1 = 2.6	2.01	1077.96	6.112
323.15 K, m1 = 2.798	1.628	1083.11	8.069
323.15 K, m1 = 3.002	1.341	1087.78	10.49
